Test results as given in article PMC5737116, “Biochemical Properties of Human D-Amino Acid Oxidase” (Frontiers in Molecular Biosciences, 2017).
“Also recorded” adds a separate entry of the source. Where two headings read alike, the source gives them in different places.

Experiments:
hDAAO holoenzyme [1] = biological target: T1, hDAAO holoenzyme (Homo sapiens, UniProt P14920); experiment: Ligand binding to hDAAO, protein fluorescence quenching; settings: for Kd: 15°C
T1 construct: made in house; host or cells: E. coli

hDAAO [2] = biological target: T2, hDAAO (Homo sapiens, UniProt P14920); experiment: Modulation of hDAAO activity, standard activity assay; type: biochemical; settings: for effect on hDAAO activity on D-alanine: D-alanine 2 or 28 mM, simultaneous 10 mM magnesium ions and 10 μM nucleotide
T2 construct: made in house; host or cells: E. coli
Procedure: The effect of MgCl2 and CaCl2 (1 or 10 mM), of 10 μM ATP or GTP and of both divalent ions and nucleotides was assessed using the standard activity assay.

hDAAO [3] = biological target: T2, hDAAO; experiment: Oxygen-consumption activity assay, apparent kinetic parameters (substrate specificity); type: biochemical; settings: for kcat / Km: apparent, 21% oxygen saturation, pH 8.5, 25°C; for oxidation by hDAAO: at 100 and 500 mM final concentration
hDAAO [4] = biological target: T2, hDAAO; settings: cited from earlier work
hDAAO apoprotein [5] = biological target: T3, hDAAO apoprotein (Homo sapiens, UniProt P14920); experiment: FAD binding to hDAAO apoprotein, protein fluorescence quenching; settings: 15°C
T3 construct: made in house; host or cells: E. coli
Procedure: Protein fluorescence spectra were measured at 1 μM protein concentration (0.04 mg/mL) in 20 mM Tris-HCl buffer, pH 8.0, 100 mM NaCl, 10% (v/v) glycerol, 5 mM 2-mercaptoethanol, and 40 μM FAD for the holoenzyme and in 50 mM sodium pyrophosphate, pH 8.3 for the apoprotein; spectra were recorded using a Jasco FP-750 instrument and were corrected for the buffer contribution. Protein fluorescence spectra were recorded between 300 and 400 nm, with excitation at 280 nm. […] In all cases, Kd-values were determined using an hyperbolic plot.

hDAAO apoprotein [6] = biological target: T3, hDAAO apoprotein; experiment: Holoenzyme reconstitution, decrease in flavin fluorescence at 528 nm; type: binding
Procedure: The holoenzyme reconstitution process was also investigated by adding increasing concentrations of apoprotein to ~1 μM of FAD and following the decrease in flavin fluorescence at 528 nm (excitation at 450 nm).

hDAAO apoprotein [7] = biological target: T3, hDAAO apoprotein; settings: cited from earlier work
hDAAO [8] = biological target: T2, hDAAO; experiment: Inhibition of D-serine oxidation by L-serine; type: biochemical
hDAAO [9] = biological target: T2, hDAAO; experiment: Reduction of FAD following anaerobic addition of L-amino acid; type: biochemical
Procedure: The ability of L-serine to bind at the hDAAO active site like the corresponding D-enantiomer is further confirmed by the observed reduction of FAD following anaerobic addition of the L-amino acid: 14 μM of hDAAO was reduced by 1 mM L-serine in >60 min.

hDAAO [10] = biological target: T2, hDAAO; settings: following enzyme inactivation; ref Kawazoe et al., 2006; cited from earlier work
hDAAO [11] = biological target: T2, hDAAO; settings: cited from earlier work; remark: listed apart in the source
hDAAO holoenzyme [12] = biological target: T1, hDAAO holoenzyme; experiment: Far-UV CD spectrum of hDAAO in the presence of ions and nucleotides; settings: 1 or 10 mM
Procedure: Circular dichroism (CD) spectra were recorded using a Jasco J-815 spectropolarimeter (Jasco Co., Cremella, Italy) in 10 mM Tris-HCl, pH 8.0, 1% (v/v) glycerol, and 40 μM FAD. The cell path length was 0.1 cm for measurements in the 200- to 250-nm region (0.1 mg protein/mL) and 1 cm for measurements in the 250–350 nm range (0.4 mg protein/mL) (Caldinelli et al., [2010]).

[13] = apparent, 21% oxygen saturation, pH 8.5, 25°C, ref Molla et al., 2006
[14] = value in brackets, ref Raibekas et al., 2000
[15] = at pH 8.3, ref Kawazoe et al., 2007b
[16] = apparent, 21% oxygen saturation, pH 8.5, 25°C, ref Frattini et al., 2011

T3 sequence (P14920 whole entry): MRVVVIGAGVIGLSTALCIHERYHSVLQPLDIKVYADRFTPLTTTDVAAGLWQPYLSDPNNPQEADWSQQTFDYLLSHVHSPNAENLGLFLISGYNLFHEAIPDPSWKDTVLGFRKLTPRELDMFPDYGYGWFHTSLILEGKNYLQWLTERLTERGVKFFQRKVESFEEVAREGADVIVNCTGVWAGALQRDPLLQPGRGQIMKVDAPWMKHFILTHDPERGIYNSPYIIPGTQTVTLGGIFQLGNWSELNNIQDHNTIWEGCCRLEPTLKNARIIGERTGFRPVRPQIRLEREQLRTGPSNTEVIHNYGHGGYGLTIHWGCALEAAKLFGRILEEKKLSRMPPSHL
T2 sequence (P14920 whole entry): as above
T1 sequence (P14920 whole entry): as above

Nc1ncnc2c1ncn2[C@@H]1O[C@H](COP(=O)(O)OP(=O)(O)OP(=O)(O)O)[C@@H](O)[C@H]1O [ATP]
change in protein fluorescence (hDAAO holoenzyme [1]; up to 20 mM): no change
effect on hDAAO activity on D-alanine (hDAAO [2]): not modified

C[C@@H](N)C(=O)O [D-Alanine]
specific activity (hDAAO [3]; saturating D-alanine concentration (28 mM), 25°C, pH 8.5, 200 μM FAD): 9.5 U/mg protein
Km (hDAAO [4]; [13]): 1300 ± 200 µM
kcat (hDAAO [4]; [13]): 5.2 ± 0.1 s⁻¹
Km (hDAAO [4]; [14]): 1000 µM
kcat (hDAAO [4]; [14]): 10 s⁻¹

N[C@H](CC(=O)O)C(=O)O [D-Aspartate]
kcat (hDAAO [4]; [13]): 6.7 ± 1.2 s⁻¹
kcat (hDAAO [4]; apparent, 21% oxygen saturation, pH 8.5, 25°C, ref Molla et al., 2006, listed as D-aspartate): 6.7 s⁻¹

N[C@H](Cc1ccc(O)c(O)c1)C(=O)O [D-DOPA, 3,4-dihydroxyphenylalanine]
Ki (hDAAO [3]): 41300 µM
kcat (hDAAO [3]): ~ 40 s^−1
Km (hDAAO [3]; read-out: Km): 6000 ± 1300 µM
Km (hDAAO [4]; [15]): 1500 µM
kcat (hDAAO [4]; [15]): 21.7 s⁻¹
Ki (hDAAO [4]; substrate inhibition effect, at pH 8.3, ref Kawazoe et al., 2007b): 500 µM

N[C@H](CCC(=O)O)C(=O)O [D-Glutamate]
Km (hDAAO [3]): b. d.
kcat (hDAAO [3]): b. d.
oxidation by hDAAO (hDAAO [3]): not oxidized
change in protein fluorescence (hDAAO holoenzyme [1]; up to 50 mM): no change

Nc1ccccc1C(=O)C[C@@H](N)C(=O)O [D-Kynurenine]
kcat (hDAAO [3]): 0.09 ± 0.01 s⁻¹
Km (hDAAO [3]; read-out: Km): 700 ± 400 µM

N[C@H](Cc1ccccc1)C(=O)O [D-Phenylalanine]
Km (hDAAO [4]; [16]): 2700 ± 200 µM
kcat (hDAAO [4]; [16]): 6.6 ± 0.1 s⁻¹
Km (hDAAO [4]; [15]): 1200 µM
kcat (hDAAO [4]; [15]): 15.5 s⁻¹

O=C(O)[C@H]1CCCN1 [D-Proline]
Km (hDAAO [4]; [13]): 8500 ± 1000 µM
kcat (hDAAO [4]; [13]): 10.2 ± 0.1 s⁻¹

N[C@H](CO)C(=O)O [D-Serine]
Km (hDAAO [4]; [13]): 7500 ± 500 µM
kcat (hDAAO [4]; [13]): 3.0 ± 0.1 s⁻¹
Km (hDAAO [4]; [15]): 3900 µM
kcat (hDAAO [4]; [15]): 4 s⁻¹
Km (hDAAO [4]; [14]): 1000 µM

N[C@H](Cc1c[nH]c2ccccc12)C(=O)O [D-Tryptophan]
Km (hDAAO [4]; [16]): 1500 ± 100 µM
kcat (hDAAO [4]; [16]): 3.2 ± 0.1 s⁻¹

N[C@H](Cc1ccc(O)cc1)C(=O)O [D-Tyrosine]
Km (hDAAO [4]; [15]): 1100 µM
kcat (hDAAO [4]; [15]): 14.8 s⁻¹

Cc1cc2nc3c(=O)[nH]c(=O)nc-3n(C[C@H](O)[C@H](O)[C@H](O)COP(=O)(O)OP(=O)(O)OC[C@H]3O[C@@H](n4cnc5c(N)ncnc54)[C@H](O)[C@@H]3O)c2cc1C [FAD]
Kd (hDAAO apoprotein [5]; 7 μM benzoate, read-out: Kd, first phase): 0.43 ± 0.02 µM
Kd (hDAAO apoprotein [5]; 7 μM benzoate, read-out: Kd, second phase): 19.1 ± 2.8 µM
Kd (hDAAO apoprotein [5]; 70 μM benzoate, read-out: Kd, single saturation): 0.48 ± 0.02 µM
Kd (hDAAO apoprotein [5]; absence of active-site ligand, read-out: Kd, first phase): 0.43 ± 0.02 µM
Kd (hDAAO apoprotein [5]; absence of active-site ligand, read-out: Kd, second phase): > 30 µM
Kd (hDAAO apoprotein [6]; 70 μM benzoate, monophasic, read-out: Kd): 0.4 ± 0.04 µM
Kd (hDAAO apoprotein [6]; absence of benzoate, ~1 μM FAD titrated with apoprotein, read-out: Kd, 1): 0.67 ± 0.07 µM
Kd (hDAAO apoprotein [6]; absence of benzoate, ~1 μM FAD titrated with apoprotein, read-out: Kd, 2): 4 ± 0.9 µM
fold tighter interaction with FAD in the presence of an active site ligand (hDAAO apoprotein [7]; active site ligand such as benzoate, ref Molla et al., 2006): 20 fold
Kd (hDAAO apoprotein [7]; benzoate binding, ref Molla et al., 2006, Caldinelli et al., 2010, read-out: Kd, flavin interaction with benzoate bound): 0.3 µM
Kd (hDAAO apoprotein [7]; interaction with the flavin cofactor, ref Molla et al., 2006, read-out: Kd): 8 µM

Nc1nc2c(ncn2[C@@H]2O[C@H](COP(=O)(O)OP(=O)(O)OP(=O)(O)O)[C@@H](O)[C@H]2O)c(=O)[nH]1 [GTP]
effect on hDAAO activity on D-alanine (hDAAO [2]): not modified

NCC(=O)O [Glycine]
apparent Km, fold higher than physiological concentration (hDAAO [3]): ~ 1,000 fold
change in protein fluorescence (hDAAO holoenzyme [1]; up to 50 mM): no change
kcat (hDAAO [4]; [13]): ~ 0.9 s^−1

CC(=O)N[C@@H](CS)C(=O)O [L-NAC, N-acetyl-L-cysteine]
effect on hDAAO activity (hDAAO [2]; 1 or 10 mM, even when added 60 min before the assay): does not affect; also recorded: not altered

N[C@@H](CO)C(=O)O [L-serine]
type of inhibition (hDAAO [8]; D-serine oxidation at increasing L-serine concentrations): competitive inhibitor
Ki (hDAAO [8]; competitive versus D-serine): 26200 µM
time for reduction of hDAAO flavin (hDAAO [9]; 14 μM hDAAO, 1 mM L-amino acid, anaerobic): > 60 min

CN[C@H](CC(=O)O)C(=O)O [N-Methyl-D-aspartate]
Km (hDAAO [3]): b. d.
kcat (hDAAO [3]): b. d.
oxidation by hDAAO (hDAAO [3]): not oxidized
change in protein fluorescence (hDAAO holoenzyme [1]; up to 50 mM): no change
reduction of FAD following anaerobic addition (hDAAO [9]; compared with L-serine, not shown): not

O=C(O)c1ccccc1 [benzoate]
Kd (hDAAO holoenzyme [1]; higher ligand concentrations, ~80% of fluorescence change, read-out: Kd, second saturation): 2590 ± 680 µM
Kd (hDAAO holoenzyme [1]; low benzoate concentrations (≤ 20 μM), read-out: Kd, first saturation): 0.33 ± 0.04 µM
Ki (hDAAO [10]): 7 µM
Kd (hDAAO [11]; CD signal at ~270 nm, ref Caldinelli et al., 2010): 9.5 µM
Kd (hDAAO [11]; formation of a shoulder at 484 nm in the absorbance spectrum, ref Raibekas et al., 2000, Molla et al., 2006): 5 to 7 µM

[Ca+2] [calcium ions]
effect on far-UV CD spectrum / protein conformation (hDAAO holoenzyme [12]): slightly modified

CN(C)CCCN1c2ccccc2Sc2ccc(Cl)cc21 [chlorpromazine]
competition with FAD for the binding to hDAAO apoprotein (hDAAO apoprotein [7]; ref Iwana et al., 2008, Sacchi et al.): compete with FAD

[Mg+2] [magnesium ions]
effect on hDAAO activity (hDAAO [2]; 1 or 10 mM final concentration): do not modify
effect on far-UV CD spectrum / protein conformation (hDAAO holoenzyme [12]): do not modify
